From PMC9926234, “Iterative computational design and crystallographic screening identifies potent inhibitors targeting the Nsp3 macrodomain of SARS-CoV-2” (Proceedings of the National Academy of Sciences of the …, 2023)
Where “and” joins values, the source holds several entries; their conditions need not be identical. Equal values may be shown once. Read-outs that look alike come from different tables or passages of the source.

Columns and labels:
SARS-CoV-2 NSP3 Mac1 [1] = biological target: T1, SARS-CoV-2 NSP3 Mac1 (Severe acute respiratory syndrome coronavirus 2, UniProt P0DTD1); set-up: contains a conserved macrodomain enzyme (Mac1); Differential scanning fluorimetry of Mac1, maximum thermal upshift; conditions: maximum shift over tested concentrations; binder
SARS-CoV-2 NSP3 Mac1 [2] = biological target: T1, SARS-CoV-2 NSP3 Mac1; experiment: biochemical; format: binding; conditions: for Ki: read-out: Ki***
TARG1 = biological target: T2, TARG1 (Homo sapiens, UniProt Q9Y530); experiment: adapted HTRF-based peptide displacement assay (off-target); format: binding
T2 construct: Targ1_HTRF; HTRF assay; pET22b(+); His6, TEV; 1-153; made in house
T2 sequence (Q9Y530 with tags, fused parts or gaps): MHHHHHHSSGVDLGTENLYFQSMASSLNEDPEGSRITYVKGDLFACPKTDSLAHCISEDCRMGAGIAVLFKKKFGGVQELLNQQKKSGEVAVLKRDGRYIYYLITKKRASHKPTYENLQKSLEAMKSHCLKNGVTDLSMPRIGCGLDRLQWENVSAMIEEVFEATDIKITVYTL

SARS-CoV-2 NSP3 Mac1 [3] = biological target: T1, SARS-CoV-2 NSP3 Mac1; format: binding; conditions: for 1-BDC / PanDDA hit? / Modeled?: crystal soak; for 1-BDC (PanDDA): 1 minus background density correction; for 1-BDC (PanDDA) / Refined occupancy: crystal soaking of Mac1; for Refined occupancy: ligand occupancy after refinement (phenix.refine)
MacroD2 = biological target: T3, MacroD2 (Homo sapiens, UniProt A1Z1Q3); experiment: adapted HTRF-based peptide displacement assay (off-target); format: binding
T3 construct: MacroD2_HTRF; HTRF assay; pET22b(+); His6, TEV, Avi; made in house
T3 sequence (A1Z1Q3 with tags, fused parts or gaps): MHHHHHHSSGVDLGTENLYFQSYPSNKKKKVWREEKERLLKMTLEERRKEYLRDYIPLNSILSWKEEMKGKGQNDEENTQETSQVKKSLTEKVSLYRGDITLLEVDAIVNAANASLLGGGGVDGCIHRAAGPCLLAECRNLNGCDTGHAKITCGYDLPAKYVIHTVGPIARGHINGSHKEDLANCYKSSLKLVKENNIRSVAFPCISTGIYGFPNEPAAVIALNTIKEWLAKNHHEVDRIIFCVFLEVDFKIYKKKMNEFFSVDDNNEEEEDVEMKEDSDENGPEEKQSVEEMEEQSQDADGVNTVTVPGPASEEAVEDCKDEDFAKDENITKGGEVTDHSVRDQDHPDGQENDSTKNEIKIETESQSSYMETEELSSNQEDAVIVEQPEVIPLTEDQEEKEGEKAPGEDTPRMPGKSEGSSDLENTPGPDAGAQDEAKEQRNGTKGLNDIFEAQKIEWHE

SARS-CoV-2 NSP3 Mac1 [4] = experiment: Overall hit call (binding in crystallographic soaking or the HTRF-based binding assay)
Source text: Supplement pnas.2212931120.sd01.xlsx, sheet "Compound Summary" | column: HIT*

[5] = HTRF ADPr-conjugated peptide displacement, read-out: IC50
[6] = PanDDA event map background density correction, compound concentration 100 mM
[7] = ligand modeled in the crystal structure, compound concentration 100 mM

With Nc1ncnc(N2CCCC(CCC(=O)O)C2)c1Cl (stereo not shown) [R6134, REAL250003296134] the “DSF max dTma” value (SARS-CoV-2 NSP3 Mac1 [1]) was 0.34 °C.
In the case of Cc1nnc(CNc2cnc(N)c(Cl)n2)n1C1CC1 [Z1964, ZINC000893101964], the “DSF max dTma” value (SARS-CoV-2 NSP3 Mac1 [1]) is reported as 0.12 °C.
O=C(Cc1ccc(-n2cccn2)cc1)OCC1CCCNC1=O (stereo not shown) [Z5505, ZINC000835985505] was tested, and the “DSF max dTma” value (SARS-CoV-2 NSP3 Mac1 [1]) was 0.16 °C.
With c1csc(CC2CCN(c3ncnc4[nH]ccc34)C2)n1 (stereo not shown) [Z6891, ZINC000897286891] the “DSF max dTma” value (SARS-CoV-2 NSP3 Mac1 [1]) was 0.15 °C.
In the case of OCc1cn(C2CCCN(c3ncnc4[nH]ccc34)C2)nn1 (stereo not shown) [Z7864, ZINC000292637864], the “DSF max dTma” value (SARS-CoV-2 NSP3 Mac1 [1]) is reported as 0.32 °C.
Cc1nnc2n1CC(C(=O)O)N(C(=O)c1ccc(NC(=O)NC3CC3)cc1)C2 (stereo not shown) [Z8539_0037, 8539_0037] was tested, and the “DSF max dTma” value (SARS-CoV-2 NSP3 Mac1 [1]) was 2.36 °C.
With NC(=O)Nc1ccc(C(=O)NC2c3cccc(O)c3CC2C(=O)O)cc1 (stereo not shown) [Z8539_0041, 8539_0041] the “DSF max dTma” value (SARS-CoV-2 NSP3 Mac1 [1]) was 6 °C.
O=C(Nc1ccc(C(=O)NC2c3cccc(O)c3CC2C(=O)O)c(O)c1)NC1CC1 (stereo not shown) [Z8539_0072] gave an IC50 (SARS-CoV-2 NSP3 Mac1 [2]; HTRF, Mac1, read-out: affinity) of 0.43 µM, an IC50 (SARS-CoV-2 NSP3 Mac1 [2]; IC50, HTRF ADPr-peptide displacement from SARS-CoV-2 Mac1) of 0.4 µM and a Ki (SARS-CoV-2 NSP3 Mac1 [2]; Ki estimation from HTRF-derived IC50, Cheng-Prusoff, peptide 400nM, Kd 2.68µM) of 0.3 µM. The “improvement compared to the best starting fragment” value (SARS-CoV-2 NSP3 Mac1 [2]; affinity, HTRF) was > 400 fold, the “displacement of the ADPr-conjugated peptide (off-target activity)” value (from here on “displacement”) (TARG1; compound at 50 µM) was “did not show any off-target activity” and the “displacement” value (TARG1; compound at 1 mM) was “did not show any off-target activity”. For the same compound, the 1-BDC (SARS-CoV-2 NSP3 Mac1 [3]; PanDDA event map 1-BDC, Compound_concentration 100 mM, PanDDA run dmso_34 or nohits_35 per dataset) was 0.24, the “1-BDC (PanDDA)” value (SARS-CoV-2 NSP3 Mac1 [3]; PanDDA event map) was 0.24 and the “PanDDA hit?” value (SARS-CoV-2 NSP3 Mac1 [3]; Compound_concentration 100 mM, Echo dispense 40 nl, PanDDA run dmso_34 or nohits_35 per dataset) was “TRUE”. The “Modeled?” value (SARS-CoV-2 NSP3 Mac1 [3]; ligand modeled in this dataset, Compound_concentration 100 mM) was “TRUE”, the Refined occupancy (SARS-CoV-2 NSP3 Mac1 [3]) was 48 and the “HIT*” value (SARS-CoV-2 NSP3 Mac1 [3]; true hit = binding in crystallographic soaking or the HTRF-based binding assay) was “Y”. The “displacement” value (MacroD2; compound at 50 µM) was “did not show any off-target activity” and the “displacement” value (MacroD2; compound at 1 mM) was “did not show any off-target activity”.
O=C(NC1c2cccc(O)c2CC1C(=O)O)c1ccc2[nH]ccc2c1 (stereo not shown) [Z8539_2004] was tested, and the IC50 (SARS-CoV-2 NSP3 Mac1 [2]; [5]) was 7.2 µM, the Ki (SARS-CoV-2 NSP3 Mac1 [2]) was 6.3 µM and the “HIT*” value (SARS-CoV-2 NSP3 Mac1 [4]) was “Y”. For the same compound, the 1-BDC (SARS-CoV-2 NSP3 Mac1 [3]; [6]) was 0.41 and 0.22, the “1-BDC (PanDDA)” value (SARS-CoV-2 NSP3 Mac1 [3]; PanDDA event map) was 0.22 and the “Modeled?” value (SARS-CoV-2 NSP3 Mac1 [3]; [7]) was “TRUE”. It also gave a Refined occupancy (SARS-CoV-2 NSP3 Mac1 [3]) of 44.
For O=C(NCc1c(C(=O)O)[nH]c2ccccc12)c1ccc2[nH]cnc2c1 [Z8539_2005], the IC50 (SARS-CoV-2 NSP3 Mac1 [2]; [5]) was 24.5 µM, the Ki (SARS-CoV-2 NSP3 Mac1 [2]) was 21.3 µM and the “HIT*” value (SARS-CoV-2 NSP3 Mac1 [4]) was “Y”. For the same compound, the 1-BDC (SARS-CoV-2 NSP3 Mac1 [3]; [6]) was 0.21 and 0.19, the “1-BDC (PanDDA)” value (SARS-CoV-2 NSP3 Mac1 [3]; PanDDA event map) was 0.19 and the 1-BDC (SARS-CoV-2 NSP3 Mac1 [3]; PanDDA event map, Compound_concentration 100 mM, Echo_dispense_volume 40 nl) was 0.24. The “PanDDA hit?” value (SARS-CoV-2 NSP3 Mac1 [3]; Compound_concentration 100 mM, Echo_dispense_volume 40 nl, PanDDA run (background map) dmso_34, nohits_35 or nohits_62) was “TRUE”, the “Modeled?” value (SARS-CoV-2 NSP3 Mac1 [3]; [7]) was “TRUE” and the Refined occupancy (SARS-CoV-2 NSP3 Mac1 [3]) was 38.
In the case of O=C(NCc1c(C(=O)O)[nH]c2ccccc12)c1ccc2[nH]c(O)nc2c1 [Z8539_2006], the IC50 (SARS-CoV-2 NSP3 Mac1 [2]; [5]) is reported as 15.8 µM, the Ki (SARS-CoV-2 NSP3 Mac1 [2]) is reported as 13.7 µM and the “HIT*” value (SARS-CoV-2 NSP3 Mac1 [4]) is reported as “Y”. The 1-BDC (SARS-CoV-2 NSP3 Mac1 [3]; [6]) was 0.05, the “1-BDC (PanDDA)” value (SARS-CoV-2 NSP3 Mac1 [3]; PanDDA event map) was 0.05 and the “Modeled?” value (SARS-CoV-2 NSP3 Mac1 [3]; [7]) was “TRUE”. The Refined occupancy (SARS-CoV-2 NSP3 Mac1 [3]) was 10.
With O=C(Nc1ccc(C(=O)N[C@H]2c3cccc(O)c3C[C@H]2C(=O)O)cc1)NC1CC1 [Z8601] the “displacement” value (TARG1; compound at 50 µM) was “no displacement”, the “displacement” value (TARG1; compound at 1 mM) was “approximately 50%” and the “displacement” value (MacroD2; compound at 50 µM) was “no displacement”. For the same compound, the “displacement” value (MacroD2; compound at 1 mM) was “approximately 50%”.
O=C1NCCCC1Nc1ncnc(-c2ccccc2)n1 (stereo not shown) [Z9020, ZINC000884519020] was tested, and the “DSF max dTma” value (SARS-CoV-2 NSP3 Mac1 [1]) was 1.01 °C.
